{"source": "patent US20260256702A1", "about": "“SUSTAINED ADJUNCT THERAPY TO IMPROVE CHEMOTHERAPY EFFICACY IN GLIOBLASTOMA IN A CEREBROVASCULA TUMOR-ON-A-CHIP MODEL” (Ohio State Innovation Foundation, priority 2022, published 2026)", "tested_on": "human umbilical vein endothelial cells (HUVECs)", "assay": "Capillary tubule formation assay", "assay_type": "cell-based", "text": "We have developed a novel process that combines electrospinning, sintering, and salt leaching to create tunable capsules for long-term controlled release of a compound. The capsules enable high levels of therapeutic loading with preserved bioactivity due to the hollow core that is loaded post-processing without the typical loss seen during encapsulation procedures. The polymers in the device are biocompatible, biodegradable, and used for applications in drug delivery. Chitosan, a positively charged biopolymer was selected for the inner layer of the capsule to electrostatically interact with negatively charged proteins, peptides, and antibodies (e.g. anti-VEGF, αCT11) to slow release. Poly(caprolactone) (PCL) was selected for the outer layer of the device due to its hydrophobicity that slows hydrolytic degradation. Capsule inner diameters ranged from 0.26-1.7 mm, with average wall thickness of 90 μm. Scanning electron microscopy (SEM) was used to measure capsule dimensions and pore size (FIG. 5A). No pores were present after sintering when prepared without salts. Pore size increased from 237±97 nm to 609±274 nm for 1% to 10% salt concentrations, and elution was increased at >5% salt concentration due to pore interconnectivity. In preliminary studies, in vitro release of model protein BSA and anti-VEGF (bevacizumab) were evaluated. […]"}
{"substance": "bevacizumab: anti-VEGF (149 kDa), released from capsules", "values": [{"measurement": "tubule formation", "setting": "VEGF 5 ng/ml, 10 μg/ml bevacizumab released from capsules at time points out to 9 months", "result": "tubule formation was inhibited"}, {"measurement": "tubule size versus fresh anti-VEGF control", "setting": "anti-VEGF released after 9 months, 5 ng VEGF", "result": "no significant difference in tubule size"}]}
